Literature values in patent publication US20100016828A1, “Drug Delivery System and Method” (priority 1995, published 2010).

Experiments:
blood-brain barrier = conditions: hyperosmolar saturated solution of 25% mannitol, intra-arterial infusion for approximately 30 seconds
[1] = intrathecal administration; at 1 hour
[2] = cat brain

OC[C@@H](O)[C@@H](O)[C@H](O)[C@H](O)CO [mannitol]
period of nonselective entry of substances into the CNS and tumor after blood-brain barrier disruption (blood-brain barrier): approximately 30 minutes

CN(Cc1cnc2nc(N)nc(N)c2n1)c1ccc(C(=O)N[C@@H](CCC(=O)O)C(=O)O)cc1 [methotrexate]
depth of penetration into parenchymal tissue [1]: 3.2 mm

OC[C@H]1O[C@@](CO)(O[C@H]2O[C@H](CO)[C@@H](O)[C@H](O)[C@H]2O)[C@@H](O)[C@@H]1O [sucrose]
distribution into gray matter ([2]; after interstitial infusion): extensively distributed into gray matter by two hours | spread in an anterior-posterior direction ([2]; two hour infusions, immediately after completion of the infusion): ≈ 2.0 cm

hematoporphyrin derivative [HpD]
HpD uptake relative to normal brain tissue (glioblastomas): 30 times | HpD uptake relative to normal tissue (low-grade tumors): 8 times
